Measurements reported in paper PMC8057092, “Cytotoxic activity of standardized extracts, a fraction, and individual secondary metabolites from fenugreek seeds against SKOV-3, HeLa and MOLT-4 cell lines” (Pharmaceutical Biology, 2021).
In brackets after ≈: the same amount, converted by molar mass. Entries after “also recorded” stand apart in the source; their conditions may differ. Where two headings read alike, the source gives them in different places.

Assays:
Format in all cases: cell-based, human
[1] = test system: SKOV-3, HeLa and MOLT-4 cell lines; assay: Cytotoxicity (MTT) on the tested cell lines, stated jointly; details: for cytotoxic activity, in words: NCI guideline: cytotoxic if IC50 under 20–30 μg/mL; for IC50: Homo sapiens, read-out: IC50, tested cell lines
Description: The viability of all the cells was determined by 3-(4,5-dimethylthiazol-2-yl)-2,5-diphenyltetrazolium bromide (MTT) assay. […] The range of concentrations was selected experimentally to obtain symmetrical sigmoidal shape of dose-response curves generated by GraFit v. 7 (Erithacus Software, West Sussex, UK). […] Following treatment, the media with the extracts, fraction and compounds were removed and replaced with fresh media with MTT (0.5 mg/mL). After 3 h of incubation, the absorption of the formazan solution was measured at 570 nm with a plate reader (Epoch, BioTek, Winooski, VT, USA). The results are expressed as IC50 mean values (±SD, standard deviation) of at least two independent experiments, in six repetitions. To determine the cytotoxic selectivity of the extracts, fraction and compounds, the selectivity index (SI) was calculated according to the formula: SI = IC50^(non-cancer cells)/IC50^(cancer cells) (Table 1).

SKOV-3 cells [2] = assay: MTT assay, SKOV-3; details: for IC50: Homo sapiens, read-out: IC50 ± SD, SKOV-3; for Selectivity index (SI), SKOV-3: SI = IC50 HaCaT/IC50 SKOV-3, from MTT results
Description: (§1) The human cervical (HeLa S3) and ovarian (SKOV-3) adenocarcinomas, acute human lymphoblastic leukaemia (MOLT-4) cell lines and human keratinocytes (HaCaT) were obtained from the American Type Culture Collection (ATCC, Manassas, VA, USA). […] All the media were supplemented with 10% (v/v) foetal bovine serum (FBS), 2 mM L-glutamine (except for McCoy’s 5 A), 100 units/mL of penicillin, 100 µg/mL of streptomycin (Sigma-Aldrich), and were kept at 37 °C in a humidified 5% CO2 incubator. The viability of all the cells was determined by 3-(4,5-dimethylthiazol-2-yl)-2,5-diphenyltetrazolium bromide (MTT) assay. […] The range of concentrations was selected experimentally to obtain symmetrical sigmoidal shape of dose-response curves generated by GraFit v. 7 (Erithacus Software, West Sussex, UK). […] Following treatment, the media with the extracts, fraction and compounds were removed and replaced with fresh media with MTT (0.5 mg/mL). After 3 h of incubation, the absorption of the formazan solution was measured at 570 nm with a plate reader (Epoch, BioTek, Winooski, VT, USA). The results are expressed as IC50 mean values (±SD, standard deviation) of at least two independent experiments, in six repetitions.

HaCaT cells [3] = assay: MTT assay, HaCaT keratinocytes; details: 24 h; for IC50: Homo sapiens, HaCaT, read-out: IC50 ± SD, HaCaT
Description: as §1

HeLa cells [4] = assay: MTT assay, HeLa; details: for IC50 ± SD, HeLa / IC50: 24 h; for IC50: Homo sapiens, HeLa, read-out: IC50 ± SD, HeLa; for Selectivity index (SI), HeLa: SI = IC50 HaCaT/IC50 HeLa, from MTT results
Description: as §1

HaCaT cells [5] = assay: RTCA (xCELLigence) cell proliferation assay, HaCaT; details: 24 h; for IC50: Homo sapiens, HaCaT, read-out: IC50 ± SD, HaCaT
Description: (§2) The human cervical (HeLa S3) and ovarian (SKOV-3) adenocarcinomas, acute human lymphoblastic leukaemia (MOLT-4) cell lines and human keratinocytes (HaCaT) were obtained from the American Type Culture Collection (ATCC, Manassas, VA, USA). The HeLa and HaCaT cells were cultured in Dulbecco’s Modified Eagle’s Medium (DMEM), SKOV-3 and MOLT-4 cells were cultured in McCoy’s 5 A and RPMI 1640 Media, respectively. All the media were supplemented with 10% (v/v) foetal bovine serum (FBS), 2 mM L-glutamine (except for McCoy’s 5 A), 100 units/mL of penicillin, 100 µg/mL of streptomycin (Sigma-Aldrich), and were kept at 37 °C in a humidified 5% CO2 incubator.
(§3) The xCELLigence Real-Time Cell Analyzer Dual Plate (RTCA DP, ACEA Biosciences, San Diego, CA, USA) was used for monitoring of viability of adherent cells (HeLa, SKOV-3 and HaCaT) treated with the extracts (A, B), fraction C and sapogenins for 24 h. The cells were seeded at a density of 2 × 10^4 cells/well into E-plate 16 (ACEA Biosciences). When the cells entered log phase, the extracts, fraction and steroidal saponins were added in the final concentration range of 5.0–120.0 µg/mL, 5.0–100.0 µg/mL, and 1.0–50.0 µg/mL, respectively. The range of concentrations was selected experimentally to obtain symmetrical sigmoidal shape of dose-response curves generated by RTCA software v. 1.2.1 (ACEA Biosciences). The maximal concentrations of the extract A, fraction and compounds solvents in the RTCA experiments were 4.0% (v/v) for methanol and 0.8% (v/v) for DMSO. To obtain viability profiles and calculate IC50 values, we used the RTCA software v. 1.2.1. All the experiments were performed in duplicate, in three independent repeats.

HeLa cells [6] = assay: RTCA (xCELLigence) cell proliferation assay, HeLa; details: for IC50: Homo sapiens, HeLa, read-out: IC50 ± SD, HeLa; for Selectivity index (SI), HeLa: SI = IC50 HaCaT/IC50 HeLa, from RTCA results
Description: as §2, §3

SKOV-3 cells [7] = assay: RTCA (xCELLigence) cell proliferation assay, SKOV-3; details: for IC50: Homo sapiens, SK-OV-3, 24 h, read-out: IC50 ± SD, SKOV-3; for IC50 / IC50 ± SD, SKOV-3: RTCA, 24 h; for Selectivity index (SI), SKOV-3: SI = IC50 HaCaT/IC50 SKOV-3, from RTCA results
Description: as §2, §3

[8] = MTT, stated jointly for the tested cell lines

O=c1cc(-c2ccc(O)cc2)oc2c([C@@H]3OC[C@@H](O)[C@H](O)[C@H]3O)c(O)c([C@@H]3O[C@H](CO)[C@@H](O)[C@H](O)[C@H]3O)c(O)c12 [Vicenin-3]
IC50, tested cell lines [1, 8]: > 50 µg/mL
cytotoxic activity, in words ([1]; MTT): inactive
IC50 ± SD, SKOV-3 (SKOV-3 cells [2]; MTT, 24 h): >50 µg/mL
IC50 ± SD, HaCaT (HaCaT cells [3]; MTT): >50 µg/mL
IC50 ± SD, HeLa (HeLa cells [4]; MTT): >50 µg/mL

C[n+]1cccc(C(=O)[O-])c1 [Trigonelline]
IC50 [1, 8]: > 50 µg/mL
IC50 (SKOV-3 cells [2]; SK-OV-3, MTT, 24 h): > 50 µg/mL
IC50 (HaCaT cells [3]; MTT): > 50 µg/mL
IC50 (HeLa cells [4]; MTT): > 50 µg/mL

C[C@@H]1CC[C@@]2(OC1)O[C@H]1C[C@H]3[C@@H]4CC=C5C[C@@H](O)CC[C@]5(C)[C@H]4CC[C@]3(C)[C@H]1[C@@H]2C [Diosgenin]
cytotoxic activity, in words ([1]; MTT): cytotoxic; also recorded: active
IC50 (HaCaT cells [5]): 23.4 ± 0.42 µg/mL (≈ 56.4 µM)
IC50 (HeLa cells [6]; RTCA, 24 h): 28 ± 2.4 µg/mL (≈ 67.5 µM)
Selectivity index (SI), HeLa (HeLa cells [6]): 0.84
IC50 (SKOV-3 cells [2]; SK-OV-3, MTT, 24 h): 19.3 ± 0.97 µg/mL (≈ 46.5 µM)
Selectivity index (SI), SKOV-3 (SKOV-3 cells [2]): 0.64
IC50 (SKOV-3 cells [7]): ~20 µg/mL (≈ 48.2 µM)
IC50 ± SD, SKOV-3 (SKOV-3 cells [7]): 16.90 ± 2.89 µg/mL (≈ 40.8 µM)
Selectivity index (SI), SKOV-3 (SKOV-3 cells [7]): 1.38
IC50 (HaCaT cells [3]; MTT): 12.4 ± 0.5 µg/mL (≈ 29.9 µM)
IC50 (HeLa cells [4]; MTT): 16.3 ± 0.26 µg/mL (≈ 39.3 µM)
Selectivity index (SI), HeLa (HeLa cells [4]): 0.76

O=c1cc(-c2ccc(O)cc2)oc2c([C@@H]3O[C@H](CO)[C@@H](O)[C@H](O)[C@H]3O)c(O)c([C@@H]3OC[C@@H](O)[C@H](O)[C@H]3O)c(O)c12 [Vicenin-1]
IC50, tested cell lines [1, 8]: > 50 µg/mL
IC50 ± SD, SKOV-3 (SKOV-3 cells [2]; MTT, 24 h): >50 µg/mL
IC50 ± SD, HaCaT (HaCaT cells [3]; MTT): >50 µg/mL
IC50 ± SD, HeLa (HeLa cells [4]; MTT): >50 µg/mL

C[C@@H]1CC[C@@]2(OC1)O[C@H]1C[C@H]3[C@@H]4CC[C@H]5C[C@@H](O)CC[C@]5(C)[C@H]4CC[C@]3(C)[C@H]1[C@@H]2C [Tigogenin]
cytotoxic activity, in words ([1]; MTT): active
IC50 (HaCaT cells [5]): 32.7 ± 0.07 µg/mL (≈ 78.5 µM)
IC50 (HeLa cells [6]; RTCA, 24 h): 25.1 ± 0.12 µg/mL (≈ 60.2 µM)
Selectivity index (SI), HeLa (HeLa cells [6]): 1.30
IC50 (SKOV-3 cells [2]; SK-OV-3, MTT, 24 h): > 50 µg/mL
IC50 ± SD, SKOV-3 (SKOV-3 cells [2]; MTT, 24 h): lowest activity
Selectivity index (SI), SKOV-3 (SKOV-3 cells [2]): < 0.62
IC50 (SKOV-3 cells [7]): 28.3 ± 3.46 µg/mL (≈ 67.9 µM)
Selectivity index (SI), SKOV-3 (SKOV-3 cells [7]): 1.16
IC50 (HaCaT cells [3]; MTT): 31.1 ± 2.31 µg/mL (≈ 74.6 µM)
IC50 (HeLa cells [4]; MTT): 35.6 ± 3.69 µg/mL (≈ 85.4 µM)
Selectivity index (SI), HeLa (HeLa cells [4]): 0.87

O=c1cc(-c2ccc(O)c(O)c2)oc2cc(O)c([C@@H]3O[C@H](CO)[C@@H](O)[C@H](O)[C@H]3O)c(O)c12 [Isoorientin]
IC50 [1, 8]: > 50 µg/mL
cytotoxic activity, in words ([1]; MTT): inactive
IC50 (SKOV-3 cells [2]; SK-OV-3, MTT, 24 h): > 50 µg/mL
IC50 (HaCaT cells [3]; MTT): > 50 µg/mL
IC50 (HeLa cells [4]; MTT): > 50 µg/mL

C[C@H]1CC[C@@]2(OC1)O[C@H]1C[C@H]3[C@@H]4CC=C5C[C@@H](O)CC[C@]5(C)[C@H]4CC[C@]3(C)[C@H]1[C@@H]2C [Yamogenin]
cytotoxic activity, in words ([1]; MTT): cytotoxic; also recorded: active
IC50 ± SD, HaCaT (HaCaT cells [5]): 16.40 ± 1.41 µg/mL (≈ 39.6 µM)
IC50 ± SD, HeLa (HeLa cells [6]; RTCA, 24 h): 19.60 ± 1.41 µg/mL (≈ 47.3 µM)
Selectivity index (SI), HeLa (HeLa cells [6]): 0.84
IC50 ± SD, SKOV-3 (SKOV-3 cells [2]; MTT, 24 h): 16.70 ± 0.08 µg/mL (≈ 40.3 µM)
Selectivity index (SI), SKOV-3 (SKOV-3 cells [2]): 0.58
IC50 ± SD, SKOV-3 (SKOV-3 cells [7]): 23.90 ± 1.48 µg/mL (≈ 57.6 µM)
IC50 ± SD, SKOV-3 (SKOV-3 cells [7]; listed as yamogenin): about 20 μg/mL
Selectivity index (SI), SKOV-3 (SKOV-3 cells [7]): 0.69
IC50 ± SD, HaCaT (HaCaT cells [3]; MTT): 9.70 ± 0.91 µg/mL (≈ 23.4 µM)
IC50 ± SD, HeLa (HeLa cells [4]; MTT): 16.5 ± 0.59 µg/mL (≈ 39.8 µM)
Selectivity index (SI), HeLa (HeLa cells [4]): 0.59

O=c1cc(-c2ccc(O)cc2)oc2c([C@@H]3O[C@H](CO)[C@@H](O)[C@H](O)[C@H]3O)c(O)cc(O)c12 [Vitexin]
IC50 [1]: > 50 µg/mL
cytotoxic activity, in words ([1]; MTT): inactive
IC50 (SKOV-3 cells [2]; SK-OV-3, 24 h): > 50 µg/mL
IC50 (HaCaT cells [3]): > 50 µg/mL

O=c1cc(-c2ccc(O)cc2)oc2c([C@@H]3O[C@H](CO)[C@@H](O)[C@H](O)[C@H]3O)c(O)c([C@@H]3O[C@H](CO)[C@@H](O)[C@H](O)[C@H]3O)c(O)c12 [Vicenin-2]
IC50, tested cell lines [1, 8]: > 50 µg/mL
cytotoxic activity, in words ([1]; MTT): inactive
IC50 ± SD, SKOV-3 (SKOV-3 cells [2]; MTT, 24 h): >50 µg/mL
IC50 ± SD, HaCaT (HaCaT cells [3]; MTT): >50 µg/mL
IC50 ± SD, HeLa (HeLa cells [4]; MTT): >50 µg/mL

O=c1cc(-c2ccc(O)c(O)c2)oc2c([C@@H]3O[C@H](CO)[C@@H](O)[C@H](O)[C@H]3O)c(O)cc(O)c12 [Orientin]
IC50 [1]: > 50 µg/mL
cytotoxic activity, in words ([1]; MTT): inactive
IC50 (SKOV-3 cells [2]; SK-OV-3, 24 h): > 50 µg/mL
IC50 (HaCaT cells [3]): > 50 µg/mL
IC50 (HeLa cells [4]): > 50 µg/mL
